Measured values taken from article PMC9952496, “A Novel Strategy for the Design of Aurein 1.2 Analogs with Enhanced Bioactivities by Conjunction of Cell-Penetrating Regions” (Antibiotics, 2023).
Where two headings read alike, the source gives them in different places. Residues, ends and D or L forms follow the SMILES beside them.

How the values were obtained:
E. faecalis (NCTC 12697) = type: cell-based; details: for MIC: NCTC 12697; for MBC: NCTC 12697, 20 h
Protocol: (§1) The antimicrobial activity evaluation was conducted by use of MIC and MBC assays, using three Gram-positive bacteria and three Gram-negative bacteria. The peptides were dissolved in dimethyl sulfoxide (DMSO) for a final concentration series from 1 to 128 µM; 20 µmol of norfloxacin was applied as the positive control, and one µL of DMSO was used as the negative control. The bacteria were inoculated in the corresponding cultural media overnight and subcultured to the desired OD value (OD = 0.23 for Gram-positive bacteria, OD = 0.4 for Gram-negative bacteria corresponding to 5 × 10^5 CFU/mL); 20 mL of culture broth and 100 µL of subcultured bacteria were mixed before being loaded onto the plate, and 1 µL of the peptide cocktail was mixed with 99 µL of diluted bacteria in 96 wells plates and then was incubated for 20 to 24 h at 37 °C. Afterward, the OD value (λ = 550 nm) of each well was detected using a Synergy HT plate reader (Biotech, Minneapolis, MN, USA). The MIC value was the lowest concentration without bacterial growth visually. Subsequently, 10 µL of the solution in each clear well was loaded onto an agar plate and cultured for 20 h. The lowest concentration without colony growth was regarded as the MBC.

MRSA (ATCC 12493) = type: cell-based; details: for MIC: ATCC 12493; for MBC: ATCC 12493, 20 h
Protocol: as §1

E. coli (NCTC 8739) = type: cell-based; details: for MIC: NCTC 8739; for MBC: NCTC 8739, 20 h
Protocol: as §1

[1] = test system: K. pneumoniae (ATCC 43816); type: cell-based; details: for MIC: ATCC 43816; for MBC: ATCC 43816, 20 h
Protocol: as §1

[2] = test system: P. aeruginosa (ATCC 9027); type: cell-based; details: for MIC: ATCC 9027; for MBC: ATCC 9027, 20 h
Protocol: as §1

[3] = test system: S. aureus (ATCC CRM 6538); type: cell-based; details: for MIC: ATCC CRM 6538; for MBC: ATCC CRM 6538, 20 h
Protocol: as §1

[4] = test system: NCI-H838 non-small-cell lung cancer cell line; type: cell-based, human
Protocol: (§2) The MTT test measures the anti-proliferation of the peptide by measuring MTT conversion by live cells into a formazan that cannot be dissolved in water. In this section, three cancer cell lines: human non-small-cell lung cancer cell line, NCI-H838 (ATCC-CRL-5844); human glioblastoma astrocytoma cell line, U251MG (ECACC-09063001) and human breast cancer cell line, MCF-7 (ATCC-HTB-22), were selected for the anti-proliferation study. H838 cells were cultured in Roswell Park Memorial Institute (RPMI)-1640 medium (Life Technologies, Paisley, UK) mixed with 10% (v/v) fetal bovine serum (FBS) and 1% penicillin-streptomycin (Gibco, 10,000 U/mL). U251MG and MCF-7 cells were cultured in Dulbecco’s Modified Eagle medium (DMEM) (Life Technologies, Carlsbad, CA) mixed with 10% (v/v) FBS and 1% penicillin–streptomycin (Gibco, 10,000 U/mL). The cancer cells were first seeded into the 96-well plates at a cell density of 8000 per well for 20–24 h at 37 °C. Then, the cells were starved by switching the FBS containing complete growth medium to FBS lacking serum-free medium for 4 h. Peptides were dissolved to a series of final concentrations from 10^−9 to 10^−4 M in ddH2O. After starvation, 1 μL of the peptide with 99 μL of the serum-free medium was added to the plate and then cultured for 20–24 h.; 10 µL of MTT (3-(4,5-dimethylthiazol-2-yl)-2,5-diphenyltetrazolium bromide, 5 mg/mL, Sigma, UK) were loaded into each well in the dark and incubated at 37 °C. Subsequently, the liquid in each well was removed completely before […] of DMSO was added to each well to dissolve the formazan. The plate was read at 570 nm using a Synergy HT plate reader.

[5] = test system: MCF-7 breast cancer cell line; type: cell-based, human
Protocol: as §2

[6] = test system: U251MG glioblastoma astrocytoma cell line; type: cell-based, human
Protocol: as §2

horse erythrocytes [7] = experiment: Haemolytic activity evaluation; details: at the peptide's MIC value for E. coli; horse erythrocytes in PBS, 2 h at 37 °C, absorbance 490 nm, Triton X-100 positive control, n = 9; listed as KIL-1
Protocol: (§3) The hemolytic activity of the peptides on mammalian erythrocytes was examined using 2% defibrinated horse blood (TCS Biosciences Ltd., Buckinghamshire, UK). Firstly, the defibrinated horse blood was washed; 2 mL of horse blood was added into a 50 mL tube; then, 30 mL of sterilized PBS was added dropwise into the tube, and the tube was mixed in a shaking bed and then centrifuged at 930× g for 10 min. The procedure was repeated until the supernatant of the centrifuge tube was clear. Afterward, the blood cell pellet was dispersed to make a 4% suspension (v/v) by adding 50 mL of sterilized PBS. Peptides were dissolved using PBS to achieve final concentrations of 1–128 μM and then mixed with the blood cell suspensions in 1.5-mL tubes. The blood cell suspensions treated with 0.1% Triton X-100 and PBS were used as positive controls and negative controls, respectively. Then the peptide-blood mixture was incubated at 37 °C degrees for 2 h in an incubator. After incubation, the tubes were centrifuged at 930× g for 10 min, and 100 µL of the supernatants were loaded into wells of the 96-well plates. The absorbance was obtained by Synergy HT plate reader at 490 nm. The hemolytic activity was calculated using the formula, hemolysis = (absorbance of experimental groups − absorbance of negative control))/(absorbance of positive control − absorbance of negative control) × 100%.

[8] = test system: Gram-positive bacteria biofilm; type: cell-based; details: range over Gram-positive bacteria
Protocol: (§4) The minimum biofilm inhibition and minimum biofilm eradication concentrations were obtained by use of the MBIC and MBEC assays. The anti-biofilm activity of the peptides was evaluated by use of S. aureus (ATCC 6538), MRSA (NCTC 12493), E. faecalis (NCTC 12493), E. coli (ATCC CRM 8739), K. pneumoniae (ATCC43816), and P. aeruginosa (ATCC CRM 9027).
(§5) For the MBIC assay, the bacteria were cultured in tryptic soy broth (TSB) broth with 1% glucose for Gram-positive bacteria biofilm and Luria Bertani (LB) broth with 1% glucose for Gram-negative bacteria biofilm. Bacteria were inoculated, subcultured, and diluted in the same method described before. The peptides were prepared in a concentration of 1–128 µM; 1 µL of peptide and 99 µL of subcultured bacteria were mixed in 96 well plates and cultured at 37 °C with a shear force of 200 rpm in a humid environment for 20–24 h. Then, the plate was washed with 130 µL of PBS twice, and 130 µL of methanol was added to stabilize the biofilm overnight; then, the plate was dyed with 100 mL of 0.5% crystal violet for 15 min. The stained biofilm was then washed once more and allowed to dry overnight. The stain was dissolved in acetic acid at a 30% concentration, and it was shaken for 15 min to ensure homogeneity. A Synergy HT plate reader was then used to read the plate at 595 nm. […]

[9] = test system: Gram-negative bacteria biofilm; details: range over Gram-negative bacteria
Protocol: as §4, §5

Gram-positive bacteria = experiment: MIC assay, summary over Gram-positive bacteria; type: cell-based; details: range over three Gram-positive bacteria
Protocol: as §1

horse erythrocytes [10] = details: red cells of horse, 2 h
Protocol: as §3

SMILES | MIC (E. faecalis (NCTC 12697)) [µM] | MBC (E. faecalis (NCTC 12697)) [µM] | MIC (MRSA (ATCC 12493)) [µM] | MBC (MRSA (ATCC 12493)) [µM] | MIC (E. coli (NCTC 8739)) [µM] | MBC (E. coli (NCTC 8739)) [µM] | MIC [1] [µM] | MBC [1] [µM] | MIC [2] [µM] | MBC [2] [µM] | MIC [3] [µM] | MBC [3] | IC50 [4] [µM] | IC50 [5] [µM] | IC50 [6] [µM] | other results
CC[C@H](C)[C@H](NC(=O)[C@H](CCCCN)NC(=O)[C@H](CCCCN)NC(=O)[C@@H](NC(=O)[C@@H](NC(=O)[C@H](CCCCN)NC(=O)[C@H](CCCCN)NC(=O)[C@@H](NC(=O)[C@@H](NC(=O)[C@H](CC(=O)O)NC(=O)[C@H](Cc1ccccc1)NC(=O)[C@H](CC(C)C)NC(=O)CN)[C@@H](C)CC)[C@@H](C)CC)[C@@H](C)CC)[C@@H](C)CC)C(=O)N[C@@H](C)C(=O)N[C@@H](CCC(=O)O)C(=O)N[C@@H](CO)C(=O)N[C@@H](Cc1ccccc1)C(N)=O [IK-1] (H-GLFDIIKKIIKKIAESF-NH2) | 8 | 16 | 16 | 16 | 8 | 8 | >128 | >128 | 16 | 32 | 8 | 8 µM | 3.5 ± 0.74 | 3 ± 0.76 | 3.4 ± 0.71 | –
CC[C@H](C)[C@H](NC(=O)[C@H](CCCCN)NC(=O)[C@H](CCCCN)NC(=O)[C@@H](NC(=O)[C@@H](NC(=O)[C@H](CCCCN)NC(=O)[C@H](CCCCN)NC(=O)[C@@H](NC(=O)[C@@H](NC(=O)[C@H](CCCCN)NC(=O)[C@H](CCCCN)NC(=O)[C@@H](NC(=O)[C@@H](NC(=O)[C@H](CC(=O)O)NC(=O)[C@H](Cc1ccccc1)NC(=O)[C@H](CC(C)C)NC(=O)CN)[C@@H](C)CC)[C@@H](C)CC)[C@@H](C)CC)[C@@H](C)CC)[C@@H](C)CC)[C@@H](C)CC)C(=O)N[C@@H](C)C(=O)N[C@@H](CCC(=O)O)C(=O)N[C@@H](CO)C(=O)N[C@@H](Cc1ccccc1)C(N)=O [IK-2] (H-GLFDIIKKIIKKIIKKIAESF-NH2) | >128 | >128 | >128 | >128 | 8 | 8 | 16 | 16 | 64 | 128 | >128 | >128 µM | 3.7 ± 0.77 | 3.2 ± 0.87 | 3.6 ± 0.18 | –
CC[C@H](C)[C@H](NC(=O)[C@H](CCCCN)NC(=O)[C@H](CCCCN)NC(=O)[C@@H](NC(=O)[C@@H](NC(=O)[C@H](CCCCN)NC(=O)[C@H](CCCCN)NC(=O)[C@@H](NC(=O)[C@@H](NC(=O)[C@H](CCCCN)NC(=O)[C@H](CCCCN)NC(=O)[C@@H](NC(=O)[C@@H](NC(=O)[C@H](CC(=O)O)NC(=O)[C@H](Cc1ccccc1)NC(=O)[C@H](CC(C)C)NC(=O)CN)[C@@H](C)CC)[C@@H](C)CC)[C@@H](C)CC)[C@@H](C)CC)[C@@H](C)CC)[C@@H](C)CC)C(N)=O [IK-3] (H-GLFDIIKKIIKKIIKKI-NH2) | 16 | 32 | 16 | 32 | 4 | 4 | 8 | 8 | 16 | 16 | 16 | 16 µM | 2.99 | 3.4 ± 0.71 | 3.3 ± 0.63 | –
CC[C@H](C)[C@H](NC(=O)[C@H](CC(=O)O)NC(=O)[C@H](Cc1ccccc1)NC(=O)[C@H](CC(C)C)NC(=O)CN)C(=O)N[C@H](C(=O)N[C@@H](CCCCN)C(=O)N[C@@H](CCCCN)C(=O)N[C@@H](CC(C)C)C(=O)N[C@@H](C)C(=O)N[C@@H](CCC(=O)O)C(=O)N[C@@H](CO)C(=O)N[C@@H](Cc1ccccc1)C(N)=O)[C@@H](C)CC [KLA-1] (H-GLFDIIKKLAESF-NH2) | 32 | 32 | 16 | 32 | 8 | 16 | 32 | 32 | 64 | 128 | 16 | 16 µM | 29.4 ± 0.22 | 17.6 ± 0.79 | 34.1 ± 0.21 | Hemolysis (horse erythrocytes [7]): almost no hemolysis was detected
CC[C@H](C)[C@H](NC(=O)[C@H](CC(=O)O)NC(=O)[C@H](Cc1ccccc1)NC(=O)[C@H](CC(C)C)NC(=O)CN)C(=O)N[C@H](C(=O)N[C@@H](CCCCN)C(=O)N[C@@H](CCCCN)C(=O)N[C@@H](CC(C)C)C(=O)N[C@@H](C)C(=O)N[C@@H](CCCCN)C(=O)N[C@@H](CC(C)C)C(=O)N[C@@H](C)C(=O)N[C@@H](CCC(=O)O)C(=O)N[C@@H](CO)C(=O)N[C@@H](Cc1ccccc1)C(N)=O)[C@@H](C)CC [KLA-2] (H-GLFDIIKKLAKLAESF-NH2) | 16 | 16 | 4 | 4 | 2 | 2 | 4 | 4 | 16 | 16 | – | 2/2 μM | 4.6 ± 0.12 | 3.55 | 5 ± 0.12 | MBIC [8]: 2 to 16 µM
CC[C@H](C)[C@H](NC(=O)[C@H](CCCCN)NC(=O)[C@H](CCCCN)NC(=O)[C@@H](NC(=O)[C@@H](NC(=O)[C@H](CC(=O)O)NC(=O)[C@H](Cc1ccccc1)NC(=O)[C@H](CC(C)C)NC(=O)CN)[C@@H](C)CC)[C@@H](C)CC)C(=O)N[C@@H](C)C(=O)N[C@@H](CCC(=O)O)C(=O)N[C@@H](CO)C(=O)N[C@@H](Cc1ccccc1)C(N)=O [aurein 1.2] (H-GLFDIIKKIAESF-NH2) | 32 | 32 | 16 | 16 | 16 | 16 | 64 | 64 | 64 | 128 | 8 | 8 µM | 26.9 | 25.9 ± 0.79 | 38.4 | concentration effective in prevention of biofilm formation (MBIC) [9]: 64 to 128 µM; MICs against Gram-positive bacteria (Gram-positive bacteria): 8 to 32 µM; HC50 (horse erythrocytes [10]): around 30 μM; Hemolysis (horse erythrocytes [10]): 20.56%
